Patent US8440624B2, “Peptide whitening agents and cosmetic compositions comprising the same” (Chanel Parfums Beaute, priority 2007, dated 2013)
Where a SMILES comes first, the peptide text is derived from it. Where no end group is shown, it is not given here. The star is where a group is joined. Palmitoyl = CCCCCCCCCCCCCCCC(=O)*

Columns and labels:
B16 melanoma cells [1] = test: Effect on melanogenesis (melanin, absorption at 405 nm) boosted by NDP-MSH; format: cell-based; conditions: for inhibition of the synthesis of melanine: with NDP-MSH, 96 hours
Experimental: (§1) B16 melanoma cells were cultured at 37° C. and 5% of CO2 in microplates with 96 wells in the presence of DMEM (Invitrogen, reference 11880028) containing 1 g/l of glucose without phenol red supplemented by 3 g/l of glucose (Sigma, reference G7021), 2 mM of L-glutamine, 50 UI/ml of penicillin, 50 μg/ml of […] (Invitrogen, reference 15070063) and 10% of fetal veal serum (Invitrogen, 10270098). After 24 h, the culture medium is replaced by a DMEM medium containing or not (control) a stable derivative of α-MSH, i.e. NDP-MSH (NLE-4-D-PHE-7-A Melanocytes Stimulating Hormone, Sigma, reference M-8764) and containing or not the peptide (compound 3 of example 1 or its N-palmitoyl derivative) according to the invention. Each peptide was tested with and without lipofectamine, (Invitrogen, reference 1538-100), an agent used to facilitate the peptide penetration. The melanocytes were then incubated for 72 hours at 37° C. and 5% of CO2.
The protocol used is the same as in example 3. The melanocytes were incubated for 96 hours at 37° C. and 5% of CO2. Kojic acid was used as a positive control.
At the end of the incubation period, the quantity of melanine was evaluated by measuring the absorption at 405 nm for each sample.

B16 melanoma cells [2] = test: Melanocyte intracellular penetration of peptide+FITC; format: cell-based; conditions: 72 hours
Experimental: as §1
At the end of the incubation period, the medium was eliminated and cells were rinsed with a solution of PBS (phosphate buffer saline). The penetration of each peptide was analyzed by microscopy (In Cell Analyser® 100, GE Healthcare) with the objective ×20 or by Flux Cytometry after unsticking of cells by enzymatic treatment with trypsine (Flux FACSarray, Becton Dickinson).
The following table 1 illustrates the measurement of the penetration of the peptide+FITC (fluoresceine isothiocyanate) in B16 melanocytes at different peptide concentrations (4, 20, 100 and 500 μg/ml).

[3] = tested on: binding of AP-2 to the dileucine-based sorting signal containing tyrosinase; test: BIAcore competition: binding of AP-2 to tyrosinase tail peptide; design: species or system human; conditions: 200 nM adaptor, 10-1000 fold molar excess of peptide; FIG. 3
Experimental: (§2) Human tyrosinase also contains tyrosine residues in its cytoplasmic tail sequence, however they are not relevant with respect to adaptor binding. Instead, the tail contains a dileucine-based sorting signal that is bound by adaptors such as AP-2 and AP-3.
(§3) Binding between adaptors and the tyrosinase tail peptide was recorded in real-time using a BIAcore 3000 biosensor (GEHealthcare) based on surface plasmon resonance. The tyrosinase tail peptide (sequence: -[…]) (SEQ ID NO: 6) was immobilized on the surface of a CM5 sensor surface using thiol coupling and resulting in the immobilization of ≦300 RU of peptide. In brief, the CM5 surface was activated with EDC/NHS for 2 min at a flow-rate of 10 μl/min, followed by modification with PDEA for another 2 min. Subsequently, peptide was injected at a flow-rate of 5 μl/min for 1 min at a concentration of 5 μg/ml in 10 mM sodium acetate pH 4.5. The flow-rate was then adjusted to 20 μl/min and remaining active groups were blocked by injection of 50 mM cysteine, 1M NaCl. […]
(§4) For competition experiments, 200 nM adaptors were incubated with a 10-1000 fold molar excess of one of the 5 compound peptides for 10 min prior to injection. For comparison of adaptor binding to the immobilized tyrosinase tail, the RU values at the end of the injection (association period) and after the dissociation period were evaluated. […]

[4] = tested on: binding of AP-3 to the dileucine-based sorting signal containing tyrosinase; test: BIAcore competition: binding of AP-3 to tyrosinase tail peptide; design: species or system human; conditions: 200 nM adaptor, 10-1000 fold molar excess of peptide; FIG. 4
Experimental: as §2, §3, §4

[5] = without lipofectamine, 20 μg/ml
[6] = without lipofectamine, 100 μg/ml
[7] = without lipofectamine, 500 μg/ml

penetration of the peptide+FITC in B16 melanocytes (B16 melanoma cells [2]; with lipofectamine, 4 μg/ml) [% control] | penetration of the peptide+FITC in B16 melanocytes (B16 melanoma cells [2]; with lipofectamine, 20 μg/ml) [% control] | penetration of the peptide+FITC in B16 melanocytes (B16 melanoma cells [2]; with lipofectamine, 100 μg/ml) [% control] | penetration of the peptide+FITC in B16 melanocytes (B16 melanoma cells [2]; with lipofectamine, 500 μg/ml) [% control] | penetration of the peptide+FITC in B16 melanocytes (B16 melanoma cells [2]; without lipofectamine, 4 μg/ml) | penetration of the peptide+FITC in B16 melanocytes (B16 melanoma cells [2]; [5]) [% control] | penetration of the peptide+FITC in B16 melanocytes (B16 melanoma cells [2]; [6]) [% control] | penetration of the peptide+FITC in B16 melanocytes (B16 melanoma cells [2]; [7]) [% control] | inhibition of the binding of AP-2 to tyrosinase [3] | inhibition of the binding of AP-3 to tyrosinase [4] | Molecule | inhibition of the NDP-MSH induction of the synthesis of melanin (B16 melanoma cells [1]; tested between 36 and 80 μg/ml) | inhibition of the synthesis of melanine (B16 melanoma cells [1]; 6.9 μg/ml) | inhibition of the synthesis of melanine (B16 melanoma cells [1]; 15.6 μg/ml) | inhibition of the synthesis of melanine (B16 melanoma cells [1]; 36 μg/ml) | inhibition of the synthesis of melanine (B16 melanoma cells [1]; 80 μg/ml) | inhibition of the synthesis of melanine (B16 melanoma cells [1]; without lipofectamine, 0.5 μg/ml) | inhibition of the synthesis of melanine (B16 melanoma cells [1]; without lipofectamine, 1 μg/ml) | inhibition of the synthesis of melanine (B16 melanoma cells [1]; without lipofectamine, 2.5 μg/ml) | inhibition of the synthesis of melanine (B16 melanoma cells [1]; without lipofectamine, 5 μg/ml) | inhibition of the synthesis of melanine (B16 melanoma cells [1]; without lipofectamine, 10 μg/ml)
– | – | – | – | – | – | – | – | – | – | O=c1cc(CO)occ1O [Kojic acid, reference compound] | sharply inhibited | −13 % of inhibition | −7 % of inhibition | 33 % of inhibition | 75 % of inhibition | – | – | – | – | –
166 | 338 | 1097 | 4265 | ns * | 263 | 533 | 1640 | – | – | AEDEPLLME [Compound 3, AEDEPLLME] | – | – | – | – | – | – | – | – | – | –
765 | 1495 | 1331 | 7726 | 276 % control | 364 | 1486 | 982 | – | – | CCCCCCCCCCCCCCCC(=O)N[C@@H](C)C(=O)N[C@@H](CCC(=O)O)C(=O)N[C@@H](CC(=O)O)C(=O)N[C@@H](CCC(=O)O)C(=O)N1CCC[C@H]1C(=O)N[C@@H](CC(C)C)C(=O)N[C@@H](CC(C)C)C(=O)N[C@@H](CCSC)C(=O)N[C@@H](CCC(=O)O)C(=O)O [N-palmitoyl derivative of compound 3] (Palmitoyl-AEDEPLLME-OH; C-terminus assumed) | – | – | – | – | – | ns * | 9 % of inhibition | 10 % of inhibition | 14 % of inhibition | 20 % of inhibition
– | – | – | – | – | – | – | – | most active | most active | AEDEPLLVD [Compound 4] | – | – | – | – | – | – | – | – | – | –
